Source: patent publication US9676751B2, “2-amino-3-ester-pyridl orexin receptor antagonists” (MERCK SHARP & DOHME CORP., priority 2013, dated 2017)

Key:
[1] = biological target: T1, human orexin-2 receptor (Homo sapiens, UniProt O43614); assay: FLIPR Ca2+ Flux Assay, CHO cells expressing the human orexin-2 receptor; type: cell-based; conditions: agonist 70 pM Ala-6,12 orexin-A, read-out: hOX2R FLIPR IC50
T1 construct: expressed in transfected cells; host or cells: CHO cells
T1 sequence (O43614 1-444): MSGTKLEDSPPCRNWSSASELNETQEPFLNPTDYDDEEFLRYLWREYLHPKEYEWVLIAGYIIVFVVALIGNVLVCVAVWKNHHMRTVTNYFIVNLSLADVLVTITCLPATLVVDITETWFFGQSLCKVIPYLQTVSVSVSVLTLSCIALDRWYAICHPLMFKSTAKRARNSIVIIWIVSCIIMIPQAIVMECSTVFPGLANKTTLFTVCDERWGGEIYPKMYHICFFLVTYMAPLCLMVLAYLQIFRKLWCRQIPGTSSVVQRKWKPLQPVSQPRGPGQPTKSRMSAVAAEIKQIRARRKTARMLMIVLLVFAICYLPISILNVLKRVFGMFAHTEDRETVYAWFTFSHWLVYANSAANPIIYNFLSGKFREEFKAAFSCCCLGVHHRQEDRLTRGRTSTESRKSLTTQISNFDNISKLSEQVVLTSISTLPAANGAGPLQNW
Experimental: The utility of the compounds in accordance with the present invention as orexin receptor OX1R and/or OX2R antagonists may be readily determined without undue experimentation by methodology well known in the art, including the “FLIPR Ca^2+ Flux Assay” (Okumura et al., Biochem. Biophys. Res. Comm. 280:976-981, 2001). In a typical experiment the OX1 and OX2 receptor antagonistic activity of the compounds of the present invention was determined in accordance with the following experimental method. For intracellular calcium measurements, Chinese hamster ovary (CHO) cells expressing the rat orexin-1 receptor or the human orexin-2 receptor, are grown in Iscove's modified DMEM containing 2 mM L-glutamine, […], 1% hypoxanthine-thymidine supplement, 100 U/ml penicillin, 100 μg/ml streptomycin and 10% heat-inactivated fetal calf serum (FCS). The cells are seeded at 20,000 cells/well into Becton-Dickinson black 384-well clear bottom sterile plates coated with poly-D-lysine. All reagents were from GIBCO-Invitrogen Corp. The seeded plates are incubated overnight at 37° C. and 5% CO2. Ala-6,12 human orexin-A as the agonist is prepared as a 1 mM stock solution in 1% bovine serum albumin (BSA) and diluted in assay buffer (HBSS containing 20 mM HEPES, 0.1% BSA and 2.5 mM probenecid, pH7.4) for use in the assay at a final concentration of 70 pM. Test compounds are prepared as 10 mM stock solution in DMSO, then diluted in 384-well plates, first in DMSO, then assay buffer. On the day of the assay, cells are washed 3 times with 100 μl assay buffer and then incubated for 60 min (37° C., 5% CO2) in 60 μl assay buffer containing 1 μM Fluo-4AM ester, 0.02% pluronic acid, and 1% BSA. The dye loading solution is then aspirated and cells are washed 3 times with 100 μl assay buffer. 30 μl of that same buffer is left in each well. Within the Fluorescent Imaging Plate Reader (FLIPR, Molecular Devices), test compounds are added to the plate in a volume of 25 μl, incubated for 5 min and finally 25 μl of agonist is added. Fluorescence is measured for each well at 1 second intervals for 5 minutes and the height of each fluorescence peak is compared to the height of the fluorescence peak induced by 70 pM Ala-6,12 orexin-A with buffer in place of antagonist. For each antagonist, IC50 value (the concentration of compound needed to inhibit 50% of the agonist response) is determined. Alternatively, compound potency can be assessed by a radioligand binding assay (described in Bergman et. al. Bioorg. Med. Chem. Lett. 2008, 18, 1425-1430) in which the inhibition constant (Ki) is determined in membranes prepared from CHO cells expressing either the OX1 or OX2 receptor. The intrinsic orexin receptor antagonist activity of a compound which may be used in the present invention may be determined by these assays.

[2] = biological target: T2, hOX1R (Homo sapiens, UniProt O43613); assay: FLIPR Ca2+ Flux Assay, CHO cells expressing the orexin-1 receptor; type: cell-based; conditions: agonist 70 pM Ala-6,12 orexin-A
T2 construct: expressed in transfected cells; host or cells: CHO cells
T2 sequence (O43613 1-425): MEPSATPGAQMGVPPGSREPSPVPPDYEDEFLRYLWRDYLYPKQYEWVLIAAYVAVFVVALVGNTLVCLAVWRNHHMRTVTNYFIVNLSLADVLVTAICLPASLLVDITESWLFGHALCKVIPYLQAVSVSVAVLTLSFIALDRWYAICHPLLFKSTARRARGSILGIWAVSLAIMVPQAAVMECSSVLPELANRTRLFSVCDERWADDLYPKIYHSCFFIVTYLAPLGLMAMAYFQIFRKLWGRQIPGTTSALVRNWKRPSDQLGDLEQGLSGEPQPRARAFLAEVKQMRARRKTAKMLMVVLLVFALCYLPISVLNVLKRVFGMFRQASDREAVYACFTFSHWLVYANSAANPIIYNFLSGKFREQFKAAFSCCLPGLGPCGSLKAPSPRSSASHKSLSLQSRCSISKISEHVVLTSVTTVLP

Row | IC50 [1] [µM] | IC50 [2] [µM] | Compound
1 | 0.024 | 0.043 | COC(=O)c1c(C#N)ccnc1N[C@@H]1CC[C@@H](C)N(C(=O)c2ccccc2-n2nccn2)C1 [Example 19, Methyl 4-cyano-2-{[(3R,6R)-6-methyl-1-{[2-(2H-1,2,3-triazol-2-yl)phenyl]carbonyl}-piperidin-3-yl]amino}pyridine-3-carboxylate]
2 | 0.048 | 0.086 | COC(=O)c1c(C#N)ccnc1N[C@@H]1CC[C@@H](C)N(C(=O)c2ccccc2-c2ncccn2)C1 [Example 20, Methyl 4-cyano-2-({(3R,6R)-6-methyl-1-[(2-pyrimidin-2-ylphenyl)carbonyl]piperidin-3-yl}amino)pyridine-3-carboxylate]
